Test system: SEM cells
Test: cell viability relative to DMSO control; higher = less cytotoxic
Conditions: 48 h
Summary of the method: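 Cells were incubated for 48 h at 37°C before CellTiter-Glo One luminescence was read. The cells were NOMO1 or SEM (500 cells/well) or P12-Ichikawa (1000 cells/well) leukemia cells, adapted for at least four passages in each medium and seeded in 1536-well plates (5 μl). Dosing used library compounds in DMSO applied by pin over 11 threefold points, 47 μM to 0.79 nM. Viability is the per-plate percentage of DMSO wells, with cell-free wells as background.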

[1] = HPLM + 10% dialyzed FBS, 0.000781 µM
[2] = HPLM + 10% dialyzed FBS, 0.00234 µM
[3] = HPLM + 10% dialyzed FBS, 0.00702 µM
[4] = HPLM + 10% dialyzed FBS, 0.0211 µM
[5] = HPLM + 10% dialyzed FBS, 0.0632 µM
[6] = HPLM + 10% dialyzed FBS, 0.19 µM
[7] = HPLM + 10% dialyzed FBS, 0.569 µM
[8] = HPLM + 10% dialyzed FBS, 1.71 µM
[9] = HPLM + 10% dialyzed FBS, 5.12 µM
[10] = HPLM + 10% dialyzed FBS, 15.4 µM
[11] = HPLM + 10% dialyzed FBS, 46.1 µM
[12] = RPMI 5 mM glucose + 10% FBS, 0.000781 µM
[13] = RPMI 5 mM glucose + 10% FBS, 0.00234 µM
[14] = RPMI 5 mM glucose + 10% FBS, 0.00702 µM
[15] = RPMI 5 mM glucose + 10% FBS, 0.0211 µM
[16] = RPMI 5 mM glucose + 10% FBS, 0.0632 µM
[17] = RPMI 5 mM glucose + 10% FBS, 0.19 µM
[18] = RPMI 5 mM glucose + 10% FBS, 0.569 µM
[19] = RPMI 5 mM glucose + 10% FBS, 1.71 µM
[20] = RPMI 5 mM glucose + 10% FBS, 5.12 µM
[21] = RPMI 5 mM glucose + 10% FBS, 15.4 µM
[22] = RPMI 5 mM glucose + 10% FBS, 46.1 µM
[23] = RPMI 5 mM glucose + 10% dialyzed FBS, 0.000781 µM
[24] = RPMI 5 mM glucose + 10% dialyzed FBS, 0.00234 µM
[25] = RPMI 5 mM glucose + 10% dialyzed FBS, 0.00702 µM
[26] = RPMI 5 mM glucose + 10% dialyzed FBS, 0.0211 µM
[27] = RPMI 5 mM glucose + 10% dialyzed FBS, 0.0632 µM
[28] = RPMI 5 mM glucose + 10% dialyzed FBS, 0.19 µM
[29] = RPMI 5 mM glucose + 10% dialyzed FBS, 0.569 µM
[30] = RPMI 5 mM glucose + 10% dialyzed FBS, 1.71 µM
[31] = RPMI 5 mM glucose + 10% dialyzed FBS, 5.12 µM
[32] = RPMI 5 mM glucose + 10% dialyzed FBS, 15.4 µM
[33] = RPMI 5 mM glucose + 10% dialyzed FBS, 46.1 µM

| SMILES | cell viability [1] [%] | cell viability [2] [%] | cell viability [3] [%] | cell viability [4] [%] | cell viability [5] [%] | cell viability [6] [%] | cell viability [7] [%] | cell viability [8] [%] | cell viability [9] [%] | cell viability [10] [%] | cell viability [11] [%] | cell viability [12] [%] | cell viability [13] [%] | cell viability [14] [%] | cell viability [15] [%] | cell viability [16] [%] | cell viability [17] [%] | cell viability [18] [%] | cell viability [19] [%] | cell viability [20] [%] | cell viability [21] [%] | cell viability [22] [%] | cell viability [23] [%] | cell viability [24] [%] | cell viability [25] [%] | cell viability [26] [%] | cell viability [27] [%] | cell viability [28] [%] | cell viability [29] [%] | cell viability [30] [%] | cell viability [31] [%] | cell viability [32] [%] | cell viability [33] [%] |
| --- | --- | --- | --- | --- | --- | --- | --- | --- | --- | --- | --- | --- | --- | --- | --- | --- | --- | --- | --- | --- | --- | --- | --- | --- | --- | --- | --- | --- | --- | --- | --- | --- | --- |
| C/C(=N\NC(=S)N1CCC1)c1ccccn1 | 98.2 | 65.1 | 24 | 16.3 | 8.49 | 7 | 6.15 | 4.65 | 3.75 | 2.98 | 4.69 | 102 | 77.1 | 23.7 | 12.9 | 6.82 | 6.63 | 5.22 | 3.59 | 2.32 | 1.6 | 3.57 | 110 | 53.4 | 19.2 | 15.8 | 6.49 | 6.19 | 5.7 | 4.26 | 3.13 | 1.84 | 2.93 |
| CCN1\C=C(\C(O)=O)C(=O)C2=C1N=C(N3CCNCC3)C(=C2)F | 58.6 | 79.7 | 68.2 | 87.3 | 84.8 | 92.3 | 84.8 | 88.5 | 84.2 | 81 | 68 | 77.9 | 102 | 72 | 82 | 92.5 | 84.5 | 92.8 | 81.9 | 86 | 89.6 | 77.4 | 74.9 | 86.8 | 71.2 | 90.4 | 78.1 | 84 | 90.5 | 93.9 | 81.5 | 103 | 87.8 |
| O=[N+]([O-])c1ncc[nH]1 | 86 | 88.2 | 99.9 | 93.1 | 74.6 | 88 | 76.1 | 84 | 89.3 | 79.9 | 55.1 | 98.2 | 91.2 | 94.5 | 113 | 94.9 | 93.5 | 87.2 | 81.3 | 93.9 | 100 | 74.3 | 108 | 97.4 | 101 | 101 | 90.4 | 93.7 | 94.8 | 85.8 | 108 | 106 | 49.8 |
| COc1cc(Nc2c(C#N)cnc3cc(OCCCN4CCN(C)CC4)c(OC)cc23)c(Cl)cc1Cl | 87.1 | 96.8 | 114 | 113 | 111 | 95 | 109 | 54.6 | 13 | 5.77 | 6.12 | 72.5 | 68.2 | 75.7 | 74.8 | 73.1 | 84.7 | 68.1 | 44 | 7.02 | 3.9 | 4.3 | 95.9 | 89.4 | 103 | 105 | 96.1 | 98 | 100 | 62.1 | 17.5 | 5.92 | 5.77 |
| CC[C@]12CC[C@H]3[C@@H](CCC/4=C/C(=O)CC[C@H]34)[C@@H]1CC[C@@]2(O)C#C | 93.7 | 79.6 | 97.7 | 92.4 | 103 | 83.1 | 87.8 | 77.9 | 83.6 | 80.9 | 82.8 | 85.7 | 102 | 102 | 109 | 108 | 85.2 | 86.9 | 86.5 | 97.9 | 87.4 | 96.5 | 103 | 90.3 | 81.9 | 102 | 101 | 96.8 | 101 | 114 | 94.8 | 111 | 105 |
| CC(=O)OC[C@H]1O[C@@H]([S-])[C@H](OC(C)=O)[C@@H](OC(C)=O)[C@@H]1OC(C)=O.CCP(CC)CC.[Au+] | 73.4 | 72.8 | 68.7 | 82.1 | 73.6 | 97.6 | 84 | 83.1 | 15.9 | 6.62 | 6.21 | 91.1 | 75 | 87.3 | 84.8 | 77.8 | 105 | 101 | 88.5 | 6.02 | 6.28 | 5.83 | 78.4 | 85.1 | 78.6 | 80.1 | 77.6 | 87.2 | 84.5 | 69.4 | 7.37 | 6.42 | 5.84 |
| N#CC(c1ccnc(NCCc2cccnc2)n1)c1nc2ccccc2s1 (stereo not given) | 110 | 122 | 118 | 117 | 126 | 136 | 134 | 131 | 144 | 137 | 115 | 105 | 105 | 144 | 125 | 133 | 118 | 124 | 132 | 140 | 132 | 120 |  |  |  |  |  |  |  |  |  |  |  |
| CCc1cc(C(N)=S)ccn1 | 80.7 | 81.5 | 88 | 86.3 | 91.5 | 92.3 | 90.8 | 89.8 | 91.2 | 54.7 | 84.7 | 112 | 103 | 98.1 | 108 | 104 | 107 | 102 | 97.8 | 88.4 | 36.1 | 68.7 | 94.9 | 99.1 | 89.8 | 106 | 101 | 116 | 102 | 94.5 | 100 | 53.9 | 64.2 |
| O=S(=O)([O-])CCS.[Na+] | 96.5 | 104 | 100 | 96.9 | 113 | 113 | 122 | 107 | 100 | 116 | 107 | 101 | 102 | 89.6 | 124 | 107 | 115 | 109 | 124 | 112 | 123 | 122 | 109 | 104 | 108 | 108 | 114 | 137 | 130 | 135 | 121 | 137 | 155 |
| O=C(Nc1c[nH]nc1-c1nc2cc(CN3CCOCC3)ccc2[nH]1)NC1CC1 | 92.3 | 85.9 | 103 | 87.9 | 40.6 | 45.9 | 26 | 16 | 6.08 | 3.77 | 2.78 | 96.7 | 90 | 107 | 101 | 22.7 | 22.5 | 17.1 | 10.4 | 3.98 | 2.18 | 2.92 | 95.1 | 93.5 | 110 | 77.2 | 26.9 | 26.8 | 22 | 11.7 | 4.09 | 2.03 | 3.29 |
| CC(C)=CCC/C(C)=C/CC/C(C)=C/CC/C(C)=C/CC/C(C)=C/CC/C(C)=C/CC/C(C)=C/CC/C(C)=C/CC/C(C)=C/CO | 94.8 | 109 | 103 | 99.7 | 91.2 | 98.9 | 115 | 77.8 | 100 | 85.5 | 119 | 109 | 105 | 121 | 96.9 | 104 | 111 | 114 | 60.7 | 107 | 60.5 | 102 | 99.4 | 99.6 | 95.6 | 102 | 105 | 100 | 108 | 61.6 | 78.4 | 63.4 | 89.3 |
| Cc1ccc([N+](=O)[O-])cc1[S+](=O)([O-])N(C)/N=C/c1cnc2ccc(Br)cn12 | 106 | 118 | 96.1 | 75.7 | 74.5 | 13.9 | 8.58 | 5.5 | 5.52 | 4.94 | 4.47 |  |  |  |  |  |  |  |  |  |  |  | 112 | 99.8 | 92.9 | 95.3 | 77.1 | 19.8 | 6.67 | 5.43 | 4.76 | 4.76 | 3.83 |
| NC(=O)Nc1sc(-c2ccc(F)cc2)cc1C(N)=O | 99.3 | 113 | 115 | 110 | 96.7 | 125 | 119 | 103 | 90.5 | 61.7 | 18.3 |  |  |  |  |  |  |  |  |  |  |  | 112 | 116 | 117 | 103 | 125 | 109 | 106 | 97.2 | 75.1 | 55.9 | 11 |
| C[C@H]1C[C@H]2[C@@H]3CC[C@](O)(C(=O)CO)[C@@]3(C)C[C@H](O)[C@@H]2[C@@]\4(C)/C=C\C(=O)\C=C14 | 78.4 | 85 | 76.7 | 87.1 | 86.2 | 75.6 | 57.1 | 41.3 | 47.4 | 46.9 | 42.6 | 76.9 | 104 | 90 | 101 | 90.5 | 102 | 71.3 | 39.2 | 51.5 | 51.2 | 40.2 | 90.6 | 92.4 | 101 | 95.7 | 93.2 | 96.3 | 72.1 | 40.9 | 45.7 | 45 | 33.3 |
| C[C@@H]1CCN(C(=O)CC#N)C[C@@H]1N(C)c1ncnc2[nH]ccc12 | 85 | 92.5 | 81.5 | 85.7 | 91 | 77.4 | 67.4 | 80 | 67 | 73.1 | 78.6 | 96.6 | 99.5 | 79.5 | 97.4 | 103 | 104 | 99.3 | 98.5 | 80 | 90.7 | 95.3 | 112 | 104 | 77.5 | 109 | 105 | 92.4 | 82.1 | 94 | 57.9 | 83.5 | 88.4 |
| CN(C)c1ccc2nc3ccc(N(C)C)cc3[s+]c2c1 | 89.6 | 51.3 | 99.7 | 104 | 104 | 117 | 114 | 102 | 97 | 18.6 | 5.42 | 82.6 | 44.9 | 89.8 | 97.6 | 91.1 | 111 | 79.7 | 85.7 | 87.2 | 73.7 | 6.3 | 86.7 | 38.2 | 80 | 89.2 | 92.7 | 91.2 | 90.1 | 91.1 | 78.7 | 46.8 | 6.19 |

From the supplement of paper PMC11451515
